pEC50: −log10 of the molar value.

As a reminder, the pEC50 is the negative decadic logarithm of the EC50, by convention in mol/L.

Holding throughout (type): cell-based
Assay [1] deals with SARS-CoV-2 (D614G strain). Particulars: read-out: EC50, replication of SARS-CoV-2.
Another assay relates to SARS-CoV-2 D614G strain.
In assay [2] the test system is European D614G strain of SARS-CoV-2 (BavPat1/2020).

For the compound `O=C(Nc1ccc([N+](=O)[O-])cc1Cl)c1cc(Cl)ccc1O` [niclosamide ethanolamine], the negative logarithm of the EC50 (pEC50) in assay [1] is 7.00; in the assay on SARS-CoV-2 D614G strain it was 7.22; in assay [2] (read-out: EC50, apical infectious titer (TCID50)), 6.02. For the same compound, the “reduction of intracellular viral RNA level versus non-treated control” value in assay [2] worked out at 3 fold.
